US20040242525A1, “Method for promoting gonadal growth in an animal” (Nagoya University, priority 2003, published 2004)
“Also recorded” adds a separate entry of the source.

Key:
[1] = test system: Japanese quail testis (gonadal growth); test: intracerebroventricular infusion by osmotic mini pump, testicular growth under short-day condition; format: in vivo, Japanese quail (Coturnix coturnix japonica); settings: for testicular growth: i.c.v. infusion to third ventricle, several doses, short-day condition (light 8 hrs, dark 16 hrs), male Japanese quail
Procedure: (§1) To assess directly whether T3 mediates photoperiodic response of gonads, the inventors studied the effect of intracerebroventricular (i.c.v.) infusion of T3 on gonadal growth. Vehicle and several doses of T3 and T4 were infused to third ventricle by osmotic mini pump and testicular size was measured before and after the infusion. […] Therefore, the inventors furthermore examined the effect of IOP infusion under long-day condition (FIG. 10b).

[2] = test system: Japanese quail gonadotropin release and gonadal growth; settings: cited from earlier work; for photoperiodically induced gonadotropin secretion and gonadal growth: peripheral injection of pharmacological dose
[3] = cited from earlier work
[4] = test system: Japanese quail testis (gonadal growth); test: IOP infusion, testicular growth under long-day condition; format: in vivo, Japanese quail (Coturnix coturnix japonica); settings: long-day condition (p<0.05)
Procedure: as §1

Row | Compound | testicular growth [1] | photoperiodically induced gonadotropin secretion and gonadal growth [2] | relative effectiveness to mimic gonadotropin release ([2]; peripheral injection) | fraction of T4 converted to T3 in the blood [3] | fraction of T4 converted to reverse T3 (RT3) in the blood [3] [%] | testicular growth at the largest dose ([1]; i.c.v. infusion, largest dose, short-day condition) | dose giving the greatest effect ([1]; intracerebroventricular administration to Japanese quail) [ng per day] | testicular growth [4]
1 | N[C@@H](Cc1cc(I)c(Oc2cc(I)c(O)c(I)c2)c(I)c1)C(=O)O [T4, Thyroxine] | little effect | can mimic | more effective than T3 | about ⅓ | ~45 |  |  | 
2 | N[C@@H](Cc1cc(I)c(Oc2ccc(O)c(I)c2)c(I)c1)C(=O)O [T3, 3,5,3′-triiodothyronine] | mimics testicular growth with dose dependent manner | can mimic |  |  |  | testicular growth was not observed | 0.3 | 
3 | CCC(Cc1c(I)cc(I)c(N)c1I)C(=O)O (stereo not shown) [IOP, lopanoic acid] |  |  |  |  |  |  |  | can reduce testicular growth; also recorded: reduces testicular growth
